According to ChEMBL document CHEMBL1159108, “Synthesis and antimicrobial activity of 2-fluorophenyl-4,6-disubstituted [1,3,5]triazines” (2010):
In brackets after ≈: the same amount, converted by molar mass.

Experiments:
Streptococcus pneumoniae [1] = assay: Antibacterial activity against multidrug-resistant Streptococcus pneumoniae; format: functional
Bacillus cereus = assay: Antibacterial activity against Bacillus cereus ATCC 13061; format: functional
Staphylococcus warneri = assay: Antibacterial activity against coagulase negative-susceptible Staphylococcus warneri; format: functional
Candida albicans [2] = assay: Antifungal activity against Candida albicans ATCC 10231
Candida albicans [3] = assay: Antifungal activity against Candida albicans ATCC 10231; format: functional
Enterococcus faecalis = assay: Antibacterial activity against Enterococcus faecalis; format: functional
Cutibacterium acnes = assay: Antibacterial activity against Propionibacterium acnes; format: functional
Staphylococcus cohnii = assay: Antibacterial activity against coagulase negative-susceptible Staphylococcus cohnii; format: functional
Staphylococcus aureus [4] = assay: Antibacterial activity against methicillin-resistant Staphylococcus aureus; format: functional
[5] = test system: Staphylococcus epidermidis; assay: Antibacterial activity against methicillin-sensitive Staphylococcus epidermidis ATCC 155-U; format: functional
Streptococcus pneumoniae [6] = assay: Antibacterial activity against Streptococcus pneumoniae; format: functional
Staphylococcus aureus [7] = assay: Antibacterial activity against vancomycin-resistant Staphylococcus aureus; format: functional
Enterococcus faecium = assay: Antibacterial activity against vancomycin-resistant Enterococcus faecium ATCC 49624; format: functional

NCCCCCNc1nc(Nc2cccc(F)c2)nc(-c2cccc(F)c2)n1
MIC (Streptococcus pneumoniae [1]): 8 µg/mL (≈ 20.8 µM)
MIC (Bacillus cereus): 8 µg/mL (≈ 20.8 µM)
MIC (Staphylococcus warneri): 4 µg/mL (≈ 10.4 µM)
MIC (Candida albicans [2]): 8 µg/mL (≈ 20.8 µM)
MIC (Candida albicans [3]): 8 µg/mL (≈ 20.8 µM)
MIC (Enterococcus faecalis): 8 µg/mL (≈ 20.8 µM)
MIC (Cutibacterium acnes): 16 µg/mL (≈ 41.6 µM)
MIC (Staphylococcus cohnii): 2 µg/mL (≈ 5.2 µM)
MIC (Staphylococcus aureus [4]): 8 µg/mL (≈ 20.8 µM)
MIC [5]: 8 µg/mL (≈ 20.8 µM)
MIC (Streptococcus pneumoniae [6]): 8 µg/mL (≈ 20.8 µM)
MIC (Staphylococcus aureus [7]): 8 µg/mL (≈ 20.8 µM)
MIC (Enterococcus faecium): 4 µg/mL (≈ 10.4 µM)

NCCCCCNc1nc(Nc2cccc(F)c2)nc(-c2cncc(F)c2)n1
MIC (Bacillus cereus): 32 µg/mL (≈ 83 µM)
MIC (Candida albicans [2]): > 100 µg/mL
MIC (Candida albicans [3]): > 100 µg/mL
MIC [5]: 32 µg/mL (≈ 83 µM)
MIC (Enterococcus faecium): 32 µg/mL (≈ 83 µM)

NCC1(CNc2nc(Nc3cccc(F)c3)nc(-c3cccc(F)c3)n2)CCCC1
MIC (Bacillus cereus): 32 µg/mL (≈ 78 µM)
MIC (Candida albicans [3]): 8 µg/mL (≈ 19.5 µM)
MIC [5]: 16 µg/mL (≈ 39 µM)
MIC (Enterococcus faecium): 32 µg/mL (≈ 78 µM)

Fc1cccc(Nc2nc(NC3CCCNC3)nc(-c3cccc(F)c3)n2)c1 (centres undefined)
MIC (Bacillus cereus): 8 µg/mL (≈ 20.9 µM)
MIC (Candida albicans [2]): 8 µg/mL (≈ 20.9 µM)
MIC (Candida albicans [3]): 8 µg/mL (≈ 20.9 µM)
MIC [5]: 2 µg/mL (≈ 5.23 µM)
MIC (Enterococcus faecium): 4 µg/mL (≈ 10.5 µM)

NCCCCCNc1nc(Nc2cccc(F)c2)nc(-c2cccc(O)c2)n1
MIC (Bacillus cereus): 8 µg/mL (≈ 20.9 µM)
MIC (Candida albicans [3]): 32 µg/mL (≈ 83.7 µM)
MIC [5]: 8 µg/mL (≈ 20.9 µM)
MIC (Enterococcus faecium): 8 µg/mL (≈ 20.9 µM)

NCC1CCC(CNc2nc(Nc3cccc(F)c3)nc(-c3cccc(F)c3)n2)CC1 (centres undefined)
MIC (Bacillus cereus): 8 µg/mL (≈ 18.8 µM)
MIC (Candida albicans [3]): 64 µg/mL (≈ 151 µM)
MIC [5]: 8 µg/mL (≈ 18.8 µM)
MIC (Enterococcus faecium): 8 µg/mL (≈ 18.8 µM)

NCCCCCNc1nc(Nc2cccc(F)c2)nc(-c2cccnc2)n1
MIC (Bacillus cereus): > 100 µg/mL
MIC (Candida albicans [2]): > 100 µg/mL
MIC (Candida albicans [3]): > 100 µg/mL
MIC [5]: 8 µg/mL (≈ 21.8 µM)
MIC (Enterococcus faecium): 16 µg/mL (≈ 43.5 µM)

NCc1ccc(CNc2nc(Nc3cccc(F)c3)nc(-c3cccc(F)c3)n2)cc1
MIC (Bacillus cereus): 16 µg/mL (≈ 38.2 µM)
MIC (Candida albicans [3]): 16 µg/mL (≈ 38.2 µM)
MIC [5]: 4 µg/mL (≈ 9.56 µM)
MIC (Enterococcus faecium): 8 µg/mL (≈ 19.1 µM)

O=C(O)c1cn(C2CC2)c2cc(N3CCNCC3)c(F)cc2c1=O [CIPROFLOXACIN]
MIC (Streptococcus pneumoniae [1]): 1 µg/mL (≈ 3.02 µM)
MIC (Staphylococcus warneri): > 16 µg/mL
MIC (Enterococcus faecalis): > 16 µg/mL
MIC (Cutibacterium acnes): 0.5 µg/mL (≈ 1.51 µM)
MIC (Staphylococcus cohnii): 0.12 µg/mL (≈ 0.362 µM)
MIC (Staphylococcus aureus [4]): > 16 µg/mL
MIC [5]: > 16 µg/mL
MIC (Streptococcus pneumoniae [6]): > 16 µg/mL
MIC (Staphylococcus aureus [7]): > 16 µg/mL
MIC (Enterococcus faecium): > 16 µg/mL

CC(C)(CN)CNc1nc(Nc2cccc(F)c2)nc(-c2cccc(F)c2)n1
MIC (Bacillus cereus): 8 µg/mL (≈ 20.8 µM)
MIC (Candida albicans [3]): 4 µg/mL (≈ 10.4 µM)
MIC [5]: 2 µg/mL (≈ 5.2 µM)
MIC (Enterococcus faecium): 8 µg/mL (≈ 20.8 µM)

NCCCCCNc1nc(NCCc2ccc(O)cc2)nc(-c2ccc(F)cc2)n1
MIC (Bacillus cereus): 4 µg/mL (≈ 9.74 µM)
MIC (Candida albicans [2]): > 100 µg/mL
MIC (Candida albicans [3]): > 100 µg/mL

NCCCCCNc1nc(NCCc2ccc(O)cc2)nc(Nc2ccc(F)cc2)n1
MIC (Streptococcus pneumoniae [1]): 64 µg/mL (≈ 150 µM)
MIC (Bacillus cereus): 16 µg/mL (≈ 37.6 µM)
MIC (Staphylococcus warneri): 64 µg/mL (≈ 150 µM)
MIC (Candida albicans [2]): > 100 µg/mL
MIC (Candida albicans [3]): > 100 µg/mL
MIC (Enterococcus faecalis): 128 µg/mL (≈ 301 µM)
MIC (Cutibacterium acnes): 32 µg/mL (≈ 75.2 µM)
MIC (Staphylococcus cohnii): 32 µg/mL (≈ 75.2 µM)
MIC (Staphylococcus aureus [4]): 128 µg/mL (≈ 301 µM)
MIC [5]: 64 µg/mL (≈ 150 µM)
MIC (Streptococcus pneumoniae [6]): 64 µg/mL (≈ 150 µM)
MIC (Staphylococcus aureus [7]): 64 µg/mL (≈ 150 µM)
MIC (Enterococcus faecium): 128 µg/mL (≈ 301 µM)

NCCCCCNc1nc(-c2cccc(F)c2)nc(-c2cccc(F)c2)n1
MIC (Candida albicans [3]): 4 µg/mL (≈ 10.8 µM)
MIC [5]: 2 µg/mL (≈ 5.41 µM)
MIC (Enterococcus faecium): 8 µg/mL (≈ 21.7 µM)

NCCN(CCN)c1nc(NCCc2ccc(O)cc2)nc(-c2cccc(F)c2)n1
MIC (Bacillus cereus): 8 µg/mL (≈ 19.4 µM)
MIC (Candida albicans [2]): > 100 µg/mL
MIC (Candida albicans [3]): > 100 µg/mL
MIC [5]: 4 µg/mL (≈ 9.72 µM)
MIC (Enterococcus faecium): 8 µg/mL (≈ 19.4 µM)

NCCN(CCN)c1nc(NCCc2ccc(O)cc2)nc(-c2ccc(F)cc2)n1
MIC (Bacillus cereus): 16 µg/mL (≈ 38.9 µM)
MIC (Candida albicans [3]): 32 µg/mL (≈ 77.8 µM)
MIC [5]: 8 µg/mL (≈ 19.4 µM)
MIC (Enterococcus faecium): 16 µg/mL (≈ 38.9 µM)

CC1(C)CC(Nc2nc(Nc3cccc(F)c3)nc(-c3cccc(F)c3)n2)CC(C)(C)N1
MIC (Bacillus cereus): 4 µg/mL (≈ 9.12 µM)
MIC (Candida albicans [3]): 32 µg/mL (≈ 73 µM)
MIC [5]: 2 µg/mL (≈ 4.56 µM)
MIC (Enterococcus faecium): 4 µg/mL (≈ 9.12 µM)

NCCCCCNc1nc(NCCc2ccc(O)cc2)nc(-c2cccc(F)c2)n1
MIC (Bacillus cereus): 8 µg/mL (≈ 19.5 µM)
MIC (Candida albicans [2]): > 100 µg/mL
MIC (Candida albicans [3]): > 100 µg/mL
MIC [5]: 8 µg/mL (≈ 19.5 µM)
MIC (Enterococcus faecium): 16 µg/mL (≈ 39 µM)

NCCCCCCNc1nc(Nc2cccc(F)c2)nc(-c2cccc(F)c2)n1
MIC (Bacillus cereus): 16 µg/mL (≈ 40.2 µM)
MIC (Candida albicans [2]): 16 µg/mL (≈ 40.2 µM)
MIC (Candida albicans [3]): 16 µg/mL (≈ 40.2 µM)
MIC [5]: 2 µg/mL (≈ 5.02 µM)
MIC (Enterococcus faecium): 4 µg/mL (≈ 10 µM)

NCCCCCCCNc1nc(Nc2cccc(F)c2)nc(-c2cccc(F)c2)n1
MIC (Bacillus cereus): 16 µg/mL (≈ 38.8 µM)
MIC (Candida albicans [3]): 64 µg/mL (≈ 155 µM)
MIC [5]: 8 µg/mL (≈ 19.4 µM)
MIC (Enterococcus faecium): 16 µg/mL (≈ 38.8 µM)

CN[C@@H]1[C@H](O[C@H]2[C@H](O[C@H]3[C@H](O)[C@@H](O)[C@H](N=C(N)N)[C@@H](O)[C@@H]3N=C(N)N)O[C@@H](C)[C@]2(O)C=O)O[C@@H](CO)[C@H](O)[C@H]1O.CN[C@@H]1[C@H](O[C@H]2[C@H](O[C@H]3[C@H](O)[C@@H](O)[C@H](N=C(N)N)[C@@H](O)[C@@H]3N=C(N)N)O[C@@H](C)[C@]2(O)C=O)O[C@@H](CO)[C@H](O)[C@H]1O.O=S(=O)(O)O.O=S(=O)(O)O.O=S(=O)(O)O [STREPTOMYCIN SULFATE]
MIC (Bacillus cereus): 8 µg/mL
MIC [5]: > 16 µg/mL
MIC (Enterococcus faecium): > 16 µg/mL

NCCCCCNc1nc(Nc2cccc(F)c2)nc(-c2ccccc2F)n1
MIC (Bacillus cereus): 64 µg/mL (≈ 166 µM)
MIC (Candida albicans [3]): 16 µg/mL (≈ 41.6 µM)
MIC [5]: 4 µg/mL (≈ 10.4 µM)
MIC (Enterococcus faecium): 8 µg/mL (≈ 20.8 µM)

C[C@@H]1[C@H](O)[C@@H](C)/C=C/C=C/C=C/C=C/C=C/C=C/C=C/[C@H](O[C@@H]2O[C@H](C)[C@@H](O)[C@H](N)[C@@H]2O)C[C@@H]2O[C@](O)(C[C@@H](O)C[C@@H](O)[C@H](O)CC[C@@H](O)C[C@@H](O)CC(=O)O[C@H]1C)C[C@H](O)[C@H]2C(=O)O [AMPHOTERICIN B]
MIC (Candida albicans [3]): 1 µg/mL (≈ 1.08 µM)

NCCCCCNc1nc(Nc2cccc(F)c2)nc(-c2ccc(F)cc2)n1
MIC (Bacillus cereus): 4 µg/mL (≈ 10.4 µM)
MIC (Candida albicans [3]): 4 µg/mL (≈ 10.4 µM)
MIC [5]: 2 µg/mL (≈ 5.2 µM)
MIC (Enterococcus faecium): 8 µg/mL (≈ 20.8 µM)

NCCCCCNc1nc(Nc2ccc(F)cc2)nc(-c2cccc(F)c2)n1
MIC (Bacillus cereus): 4 µg/mL (≈ 10.4 µM)
MIC (Candida albicans [3]): 4 µg/mL (≈ 10.4 µM)
MIC [5]: 2 µg/mL (≈ 5.2 µM)
MIC (Enterococcus faecium): 8 µg/mL (≈ 20.8 µM)

NCCCCCNc1nc(Nc2cccc(C(F)(F)F)c2)nc(-c2cccc(F)c2)n1
MIC (Bacillus cereus): 16 µg/mL (≈ 36.8 µM)
MIC (Candida albicans [3]): 16 µg/mL (≈ 36.8 µM)
MIC [5]: 8 µg/mL (≈ 18.4 µM)
MIC (Enterococcus faecium): 4 µg/mL (≈ 9.21 µM)

NCCCCCNc1nc(Nc2cccc(F)c2)nc(-c2cc(F)cc(F)c2)n1
MIC (Bacillus cereus): 16 µg/mL (≈ 39.8 µM)
MIC (Candida albicans [2]): 16 µg/mL (≈ 39.8 µM)
MIC (Candida albicans [3]): 16 µg/mL (≈ 39.8 µM)
MIC [5]: 4 µg/mL (≈ 9.94 µM)
MIC (Enterococcus faecium): 8 µg/mL (≈ 19.9 µM)

NCCCCCNc1nc(Nc2ccc(F)cc2)nc(-c2cccnc2)n1
MIC (Bacillus cereus): > 100 µg/mL
MIC (Candida albicans [2]): > 100 µg/mL
MIC (Candida albicans [3]): > 100 µg/mL
MIC [5]: 16 µg/mL (≈ 43.5 µM)
MIC (Enterococcus faecium): > 100 µg/mL
